Measured values from patent US7632654B2, “Means and methods for detecting endoglycosidase activity” (Academisch Ziekenhuis bij de Universiteit van Amsterdam, priority 2002, dated 2009).

Experiments:
Type in all cases: biochemical
[1] = target: T1, lysozyme from human neutrophils (Homo sapiens, UniProt P61626); assay: substrate preference of lysozyme, 4MU release; conditions: lysozyme from human neutrophils (Sigma)
T1 construct: lysozyme from human neutrophils; purchased Sigma; host or cells: human neutrophils
T1 sequence (P61626 19-148): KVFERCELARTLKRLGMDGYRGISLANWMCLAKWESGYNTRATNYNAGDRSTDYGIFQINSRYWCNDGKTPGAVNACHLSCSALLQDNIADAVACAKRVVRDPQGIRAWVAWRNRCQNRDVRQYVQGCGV
Excerpt: (§1) Substrate preference of lysozyme. The enzymatic activity of commercial lysozyme preparations was 25 measured with 4-MU-chitobioside and 4MU-deoxychitbioside substrates. The release of 4MU was detected fluorimetrically, as described before. Similar to the findings for chitotriosidase (chitinase), the activity measured with the deoxy-subsytrate is far higher: […]

lysozyme from human milk = target: T2, lysozyme from human milk (Homo sapiens, UniProt P61626); assay: substrate preference of lysozyme, 4MU release; conditions: lysozyme from human milk (Sigma)
T2 construct: lysozyme from human milk; purchased Sigma; host or cells: human milk
T2 sequence (P61626 19-148): T1 sequence (P61626 19-148)
Excerpt: as §1

[2] = target: T3, lysozyme from chicken egg (Gallus gallus, UniProt P00698); assay: substrate preference of lysozyme, 4MU release; conditions: lysozyme from chicken egg (Sigma)
T3 construct: lysozyme from chicken egg; purchased Sigma; host or cells: chicken egg
T3 sequence (P00698 19-147): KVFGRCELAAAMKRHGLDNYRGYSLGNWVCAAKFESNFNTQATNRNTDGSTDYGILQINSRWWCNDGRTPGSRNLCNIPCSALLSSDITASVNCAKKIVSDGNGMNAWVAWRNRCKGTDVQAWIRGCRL
Excerpt: as §1

[3] = test system: bacterial chitinase, 39 and 50 kDa forms of human and mouse chitotriosidase and AMCases, fetal calf serum chitinase; assay: CHIS versus 4-MU-chitobiose as substrate for other chitinases; conditions: in all cases (not shown)
Experimental: For this purpose, assays were performed with CHIS and 4-MU-chitobiose as substrate with bacterial chitinase (Sigma), purified recombinant 39 and 50 kDa forms of human and mouse chitotriosidase and AMCases and purified fetal calf serum chitinase.

50 kDa chitotriosidase = target: T4, 50 kDa chitotriosidase (Homo sapiens, UniProt Q13231); assay: hydrolysis of 4-MU substrates by pure 50 kDa chitotriosidase, fluorimetric 4-MU release; conditions: 37 C
T4 construct: made in house
T4 sequence (Q13231 22-466): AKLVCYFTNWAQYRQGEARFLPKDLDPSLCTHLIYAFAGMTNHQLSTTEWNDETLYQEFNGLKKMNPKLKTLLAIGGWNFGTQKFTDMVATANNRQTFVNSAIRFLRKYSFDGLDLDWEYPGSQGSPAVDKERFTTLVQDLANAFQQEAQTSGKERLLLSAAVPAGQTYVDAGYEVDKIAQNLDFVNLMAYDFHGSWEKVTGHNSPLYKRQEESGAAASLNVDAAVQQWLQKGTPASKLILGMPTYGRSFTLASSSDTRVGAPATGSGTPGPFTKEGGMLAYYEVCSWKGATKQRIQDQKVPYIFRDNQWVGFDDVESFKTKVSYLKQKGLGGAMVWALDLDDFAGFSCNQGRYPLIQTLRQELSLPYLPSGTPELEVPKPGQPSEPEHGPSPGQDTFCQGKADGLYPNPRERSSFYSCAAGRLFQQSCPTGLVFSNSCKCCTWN
Experimental: FIG. 3. Substrate concentration dependency of chitriosidase activity with novel artificial substrate as compared to present one. Activity of 50 kDa chitotriosdase towards 4-MU-chitobiose and 4-deoxy-variant hereof (CHIS1). Enzyme was incubated at 37 C with indicated concentrations of substrates. Reactions were stopped after 10 minutes and 4-MU measured fluorometrically.
FIG. 4. Improved linearity of chitotriosidase assay with time and enzyme concentration. Activity of 50 kDa chitotriosdase towards 4-MU-chitobiose and 4-deoxy-variant hereof (CHIS). Reaction time (FIG. 5a) and concentration of enzyme (FIG. 5b) were varied and enzyme activity was measured with 4MU-chitobiose and 4-deoxy-variant hereof.
The CHISI compound was tested as substrate. For this purpose, pure 50 kDa chitotriosidase was incubated with this substrate at 37 C in Mclvaine buffer (pH 5.5). For comparison the enzymes were in parallel incubated with 4-MU-chitobiose (Sigma). The reaction was stopped by adding excess of 0.1 M glycine-NaOH @H 10.3) and fluorescence was monitored (excitation at 366 nm, emission at 445 nm).
Even more importantly, saturating substrate concentrations (100-200 microM) can be used in the case of CHIS (Km of chitotriosidase is 50 microM). This renders a great improvement with regard to reproducibility of the assay and interpretation of results. […]

CC(=O)N[C@H]1[C@H](Oc2ccc3c(C)cc(=O)oc3c2)O[C@H](CO)[C@@H](O[C@@H]2O[C@H](CO)C[C@H](O)[C@H]2NC(C)=O)[C@@H]1O [CHIS1, 4-methylumbellyferyl 2-acetamido-2-deoxy-4-0-(2-acetamido-2,4-dideoxy-beta-D-glucopyranosyl)-beta-Dglucopyranoside]
ratio 4MU-deoxychitobioside/4Mu-chitobioside [1]: 3.0-3.2
ratio 4MU-deoxychitobioside/4Mu-chitobioside (lysozyme from human milk): 2.5-3.0
ratio 4MU-deoxychitobioside/4Mu-chitobioside [2]: 2.1-2.4
substrate behaviour with other chitinases [3]: far more sensitive and linear at saturating substrate concentration
Km (50 kDa chitotriosidase; Mclvaine buffer pH 5.5): 50 µM
substrate inhibition (50 kDa chitotriosidase; pure 50 kDa chitotriosidase, pH 5.5, FIG. 3): does not show substrate inhibition
